Tests used:
Experiment in all cases: KinaseProfiler Assay
MAPKAP-K2(h) = MAPKAP-K2(h) (Homo sapiens, UniProt P49137)
PKCε(h) = target: T1, PKCε(h) (Homo sapiens, UniProt Q02156)
T1 sequence (Q02156 1-737): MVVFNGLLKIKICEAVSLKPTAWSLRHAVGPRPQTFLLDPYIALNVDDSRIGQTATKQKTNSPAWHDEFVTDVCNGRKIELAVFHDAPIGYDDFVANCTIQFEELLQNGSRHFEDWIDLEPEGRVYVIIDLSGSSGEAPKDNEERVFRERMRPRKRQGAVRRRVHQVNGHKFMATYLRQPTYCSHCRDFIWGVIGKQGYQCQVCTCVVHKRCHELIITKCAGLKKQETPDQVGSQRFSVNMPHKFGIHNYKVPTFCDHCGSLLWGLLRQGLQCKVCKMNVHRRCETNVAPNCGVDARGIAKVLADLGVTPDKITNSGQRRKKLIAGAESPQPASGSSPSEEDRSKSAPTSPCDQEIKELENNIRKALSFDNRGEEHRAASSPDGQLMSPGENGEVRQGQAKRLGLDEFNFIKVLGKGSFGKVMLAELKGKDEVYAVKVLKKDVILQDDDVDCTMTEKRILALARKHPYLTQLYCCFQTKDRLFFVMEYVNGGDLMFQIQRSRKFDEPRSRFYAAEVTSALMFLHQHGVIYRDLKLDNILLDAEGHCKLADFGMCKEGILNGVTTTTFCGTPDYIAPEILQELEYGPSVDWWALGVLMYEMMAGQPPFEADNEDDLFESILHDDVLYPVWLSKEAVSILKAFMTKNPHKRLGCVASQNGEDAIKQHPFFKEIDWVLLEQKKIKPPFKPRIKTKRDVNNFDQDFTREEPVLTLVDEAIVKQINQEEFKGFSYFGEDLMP

Fyn(h) = Fyn(h) (Homo sapiens, UniProt P06241)
Ret(V804M)(h) = Ret(V804M)(h) (Homo sapiens, UniProt P07949, V804M)
GRK7(h) = target: T2, GRK7(h) (Homo sapiens, UniProt Q8WTQ7)
T2 sequence (Q8WTQ7 1-553): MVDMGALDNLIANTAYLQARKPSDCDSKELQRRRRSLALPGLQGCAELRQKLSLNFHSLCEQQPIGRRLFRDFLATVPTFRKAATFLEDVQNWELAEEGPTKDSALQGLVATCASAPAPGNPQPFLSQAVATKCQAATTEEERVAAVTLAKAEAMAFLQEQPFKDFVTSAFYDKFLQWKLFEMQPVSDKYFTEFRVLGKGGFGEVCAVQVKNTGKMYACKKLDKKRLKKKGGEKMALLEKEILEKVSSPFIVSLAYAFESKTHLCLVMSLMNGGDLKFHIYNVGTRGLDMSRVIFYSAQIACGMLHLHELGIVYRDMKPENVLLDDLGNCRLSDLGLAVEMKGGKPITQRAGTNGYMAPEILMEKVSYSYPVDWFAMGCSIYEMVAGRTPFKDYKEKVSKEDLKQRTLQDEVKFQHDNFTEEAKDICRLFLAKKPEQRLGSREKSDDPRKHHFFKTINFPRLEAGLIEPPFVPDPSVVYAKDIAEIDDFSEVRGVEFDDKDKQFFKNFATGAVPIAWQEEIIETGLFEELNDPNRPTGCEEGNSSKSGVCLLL

cKit(V654A)(h) = cKit(V654A)(h) (Homo sapiens, UniProt P10721, V654A)
ZAP-70(h) = target: T3, ZAP-70(h) (Homo sapiens, UniProt P43403)
T3 sequence (P43403 1-619): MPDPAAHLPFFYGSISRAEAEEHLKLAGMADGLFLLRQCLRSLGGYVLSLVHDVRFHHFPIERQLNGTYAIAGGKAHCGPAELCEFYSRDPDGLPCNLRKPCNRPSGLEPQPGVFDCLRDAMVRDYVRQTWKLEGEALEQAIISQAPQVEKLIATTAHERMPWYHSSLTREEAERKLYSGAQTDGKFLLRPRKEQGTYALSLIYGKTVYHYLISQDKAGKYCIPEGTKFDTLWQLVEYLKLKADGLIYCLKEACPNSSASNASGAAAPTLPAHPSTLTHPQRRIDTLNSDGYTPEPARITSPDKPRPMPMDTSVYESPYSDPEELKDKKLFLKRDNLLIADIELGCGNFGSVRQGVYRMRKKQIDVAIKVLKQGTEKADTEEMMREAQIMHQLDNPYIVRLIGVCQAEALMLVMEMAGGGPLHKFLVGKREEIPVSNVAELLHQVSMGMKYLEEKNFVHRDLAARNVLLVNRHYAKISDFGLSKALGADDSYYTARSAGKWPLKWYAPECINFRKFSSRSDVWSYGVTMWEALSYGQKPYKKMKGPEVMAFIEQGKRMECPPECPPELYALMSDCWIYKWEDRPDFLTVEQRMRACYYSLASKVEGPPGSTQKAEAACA

BTK(h) = BTK(h) (Homo sapiens, UniProt Q06187)
BTK(h), sequence (Q06187 whole entry): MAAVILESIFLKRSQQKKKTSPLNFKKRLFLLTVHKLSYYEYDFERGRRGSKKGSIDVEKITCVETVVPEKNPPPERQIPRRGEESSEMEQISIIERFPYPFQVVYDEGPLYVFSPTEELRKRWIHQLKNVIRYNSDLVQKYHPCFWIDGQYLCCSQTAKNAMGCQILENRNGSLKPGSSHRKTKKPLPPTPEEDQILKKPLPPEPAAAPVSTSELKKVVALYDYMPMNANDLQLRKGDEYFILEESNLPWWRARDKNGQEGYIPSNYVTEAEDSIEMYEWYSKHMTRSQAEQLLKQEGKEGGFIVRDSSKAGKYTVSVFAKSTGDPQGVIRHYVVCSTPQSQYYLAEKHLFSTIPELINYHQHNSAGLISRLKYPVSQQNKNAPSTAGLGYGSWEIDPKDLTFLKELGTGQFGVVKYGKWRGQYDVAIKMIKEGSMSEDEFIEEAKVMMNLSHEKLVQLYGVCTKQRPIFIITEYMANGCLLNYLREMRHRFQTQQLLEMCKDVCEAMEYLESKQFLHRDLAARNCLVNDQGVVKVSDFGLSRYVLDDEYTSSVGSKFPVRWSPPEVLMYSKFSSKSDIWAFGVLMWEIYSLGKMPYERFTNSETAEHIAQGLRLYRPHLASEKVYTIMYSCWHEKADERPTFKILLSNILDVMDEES

Ret(V804M)(h), sequence (P07949 29-1114 V804M): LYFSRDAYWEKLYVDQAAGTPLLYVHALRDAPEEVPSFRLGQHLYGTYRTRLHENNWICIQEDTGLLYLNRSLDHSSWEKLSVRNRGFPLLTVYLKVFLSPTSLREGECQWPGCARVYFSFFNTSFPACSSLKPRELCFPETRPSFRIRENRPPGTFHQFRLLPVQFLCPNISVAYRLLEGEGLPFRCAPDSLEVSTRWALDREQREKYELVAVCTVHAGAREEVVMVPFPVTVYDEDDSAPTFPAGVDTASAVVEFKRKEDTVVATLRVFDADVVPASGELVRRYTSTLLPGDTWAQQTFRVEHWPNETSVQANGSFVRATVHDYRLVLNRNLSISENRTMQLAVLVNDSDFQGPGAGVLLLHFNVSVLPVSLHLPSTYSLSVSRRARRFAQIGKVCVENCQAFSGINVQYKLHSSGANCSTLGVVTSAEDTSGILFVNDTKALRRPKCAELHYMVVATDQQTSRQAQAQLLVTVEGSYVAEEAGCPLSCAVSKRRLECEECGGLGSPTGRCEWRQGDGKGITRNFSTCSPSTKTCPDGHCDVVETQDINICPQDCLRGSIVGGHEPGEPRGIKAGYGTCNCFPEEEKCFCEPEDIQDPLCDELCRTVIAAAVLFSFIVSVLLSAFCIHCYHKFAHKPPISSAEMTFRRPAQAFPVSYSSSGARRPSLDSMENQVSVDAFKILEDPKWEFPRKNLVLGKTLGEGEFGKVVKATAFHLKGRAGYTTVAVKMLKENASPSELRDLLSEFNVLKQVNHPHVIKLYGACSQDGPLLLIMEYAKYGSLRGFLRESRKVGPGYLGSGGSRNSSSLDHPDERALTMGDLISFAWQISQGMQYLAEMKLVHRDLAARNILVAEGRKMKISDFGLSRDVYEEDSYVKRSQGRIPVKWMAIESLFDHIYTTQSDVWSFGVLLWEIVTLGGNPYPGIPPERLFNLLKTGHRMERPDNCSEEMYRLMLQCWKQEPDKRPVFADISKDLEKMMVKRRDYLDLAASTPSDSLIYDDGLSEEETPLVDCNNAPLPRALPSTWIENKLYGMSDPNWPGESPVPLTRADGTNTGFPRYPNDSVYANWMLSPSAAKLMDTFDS
Fyn(h), sequence (P06241 whole entry): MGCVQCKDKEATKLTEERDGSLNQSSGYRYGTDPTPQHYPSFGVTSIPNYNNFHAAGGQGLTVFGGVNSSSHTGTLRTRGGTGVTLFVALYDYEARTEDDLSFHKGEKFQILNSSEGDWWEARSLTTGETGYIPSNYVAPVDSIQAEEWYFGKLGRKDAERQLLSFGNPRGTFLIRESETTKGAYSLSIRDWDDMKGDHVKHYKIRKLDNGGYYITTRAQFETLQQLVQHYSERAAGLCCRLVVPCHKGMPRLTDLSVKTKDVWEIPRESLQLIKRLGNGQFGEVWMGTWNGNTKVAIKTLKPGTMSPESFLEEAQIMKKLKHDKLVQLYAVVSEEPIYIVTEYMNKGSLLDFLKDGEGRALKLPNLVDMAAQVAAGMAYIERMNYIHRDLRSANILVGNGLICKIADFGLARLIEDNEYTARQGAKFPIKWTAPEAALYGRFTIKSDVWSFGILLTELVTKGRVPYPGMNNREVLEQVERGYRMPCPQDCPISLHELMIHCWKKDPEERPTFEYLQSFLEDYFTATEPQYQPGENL
cKit(V654A)(h), sequence (P10721 26-976 V654A): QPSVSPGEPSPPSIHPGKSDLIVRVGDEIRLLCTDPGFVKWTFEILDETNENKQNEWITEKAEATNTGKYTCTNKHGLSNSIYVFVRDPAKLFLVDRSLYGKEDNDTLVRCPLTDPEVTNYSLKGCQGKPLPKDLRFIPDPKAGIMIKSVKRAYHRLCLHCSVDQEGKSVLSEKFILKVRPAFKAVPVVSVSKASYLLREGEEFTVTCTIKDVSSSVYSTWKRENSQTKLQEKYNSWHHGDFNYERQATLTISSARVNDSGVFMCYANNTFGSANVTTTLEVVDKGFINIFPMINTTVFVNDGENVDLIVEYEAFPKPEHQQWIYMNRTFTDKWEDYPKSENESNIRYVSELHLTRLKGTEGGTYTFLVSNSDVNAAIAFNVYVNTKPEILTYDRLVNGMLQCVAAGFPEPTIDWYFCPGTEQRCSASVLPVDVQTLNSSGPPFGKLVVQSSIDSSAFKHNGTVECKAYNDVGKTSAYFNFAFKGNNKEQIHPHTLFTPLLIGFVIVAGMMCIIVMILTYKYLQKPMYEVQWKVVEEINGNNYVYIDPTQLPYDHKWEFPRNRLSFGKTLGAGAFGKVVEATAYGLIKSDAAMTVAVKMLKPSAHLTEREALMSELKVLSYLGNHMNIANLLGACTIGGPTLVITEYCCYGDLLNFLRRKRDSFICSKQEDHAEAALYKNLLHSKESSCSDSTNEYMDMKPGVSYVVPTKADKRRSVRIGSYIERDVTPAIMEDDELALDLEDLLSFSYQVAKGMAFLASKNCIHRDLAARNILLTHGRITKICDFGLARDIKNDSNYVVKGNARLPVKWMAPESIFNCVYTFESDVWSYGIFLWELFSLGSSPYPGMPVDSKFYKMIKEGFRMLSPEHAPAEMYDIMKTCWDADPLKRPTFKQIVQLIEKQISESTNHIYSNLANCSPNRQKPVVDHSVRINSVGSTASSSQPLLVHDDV
MAPKAP-K2(h), sequence (P49137 whole entry): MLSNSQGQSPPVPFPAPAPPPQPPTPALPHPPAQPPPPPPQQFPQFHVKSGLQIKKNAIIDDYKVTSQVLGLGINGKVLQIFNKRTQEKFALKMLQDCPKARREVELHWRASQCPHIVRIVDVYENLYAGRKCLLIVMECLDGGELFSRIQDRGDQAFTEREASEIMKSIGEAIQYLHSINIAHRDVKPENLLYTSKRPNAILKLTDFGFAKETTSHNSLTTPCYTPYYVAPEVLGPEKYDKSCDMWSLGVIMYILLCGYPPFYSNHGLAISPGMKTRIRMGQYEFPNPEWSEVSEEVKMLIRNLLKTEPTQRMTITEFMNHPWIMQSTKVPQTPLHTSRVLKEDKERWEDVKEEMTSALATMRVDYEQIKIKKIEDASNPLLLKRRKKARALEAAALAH

SMILES: CC(C)CCC(=O)[C@]1(O)C(O)=C(C(=O)C(C)C)C(=O)[C@H]1CCC(C)C [TH2, tetrahydroiso-cohumulone]
- kinase inhibition (MAPKAP-K2(h); 1 μg/ml): 116% of control
- kinase inhibition (MAPKAP-K2(h); 5 μg/ml): 104% of control
- kinase inhibition (MAPKAP-K2(h); 25 μg/ml): 104% of control
- kinase inhibition (MAPKAP-K2(h); 50 μg/ml): 74% of control
- kinase inhibition (MAPKAP-K2(h); 100 μg/ml): 73% of control
- kinase inhibition (PKCε(h); 1 μg/ml): 105% of control
- kinase inhibition (PKCε(h); 5 μg/ml): 102% of control
- kinase inhibition (PKCε(h); 25 μg/ml): 98% of control
- kinase inhibition (PKCε(h); 50 μg/ml): 102% of control
- kinase inhibition (PKCε(h); 100 μg/ml): 90% of control
- kinase inhibition (Fyn(h); 1 μg/ml): 103% of control
- kinase inhibition (Fyn(h); 5 μg/ml): 105% of control
- kinase inhibition (Fyn(h); 25 μg/ml): 103% of control
- kinase inhibition (Fyn(h); 50 μg/ml): 105% of control
- kinase inhibition (Fyn(h); 100 μg/ml): 89% of control
- kinase inhibition (Ret(V804M)(h); 1 μg/ml): 107% of control
- kinase inhibition (Ret(V804M)(h); 5 μg/ml): 104% of control
- kinase inhibition (Ret(V804M)(h); 25 μg/ml): 110% of control
- kinase inhibition (Ret(V804M)(h); 50 μg/ml): 94% of control
- kinase inhibition (Ret(V804M)(h); 100 μg/ml): 88% of control
- kinase inhibition (GRK7(h); 1 μg/ml): 110% of control
- kinase inhibition (GRK7(h); 5 μg/ml): 95% of control
- kinase inhibition (GRK7(h); 25 μg/ml): 102% of control
- kinase inhibition (GRK7(h); 50 μg/ml): 91% of control
- kinase inhibition (GRK7(h); 100 μg/ml): 99% of control
- kinase inhibition (cKit(V654A)(h); 1 μg/ml): 100% of control
- kinase inhibition (cKit(V654A)(h); 5 μg/ml): 101% of control
- kinase inhibition (cKit(V654A)(h); 25 μg/ml): 112% of control
- kinase inhibition (cKit(V654A)(h); 50 μg/ml): 88% of control
- kinase inhibition (cKit(V654A)(h); 100 μg/ml): 75% of control
- kinase inhibition (ZAP-70(h); 1 μg/ml): 125% of control
- kinase inhibition (ZAP-70(h); 5 μg/ml): 110% of control
- kinase inhibition (ZAP-70(h); 25 μg/ml): 124% of control
- kinase inhibition (ZAP-70(h); 50 μg/ml): 124% of control
- kinase inhibition (ZAP-70(h); 100 μg/ml): 107% of control
- kinase inhibition (BTK(h); 1 μg/ml): 98% of control
- kinase inhibition (BTK(h); 5 μg/ml): 96% of control
- kinase inhibition (BTK(h); 25 μg/ml): 67% of control
- kinase inhibition (BTK(h); 50 μg/ml): 59% of control
- kinase inhibition (BTK(h); 100 μg/ml): 47% of control

— US20100137449A1, “SUBSTITUTED 1,3-CYCLOPENTADIONE MULTI-TARGET PROTEIN KINASE MODULATORS OF CANCER, ANGIOGENESIS AND THE INFLAMMATORY PATHWAYS ASSOCIATED THEREWITH” (METAPROTEOMICS, LLC, priority 2007, published 2010)
